From paper PMC11542830, “3-nitropyridine analogues as novel microtubule-targeting agents” (PLOS ONE, 2024)
pIC50: −log10 of the molar value. Like-named read-outs stand apart in the source and are kept apart here.

Assays:
primary cortical neurons = assay: Neurite outgrowth assay; format: cell-based, Sprague-Dawley rat; settings: Primary cortical neuron, rat primary cortical neurons, 72 hours
Method: Neurite outgrowth assay was performed by Fluofarma (Pessac, France). Primary cortical neurons were harvested from E19 Sprague-Dawley (Janvier Labs) rat embryos, dissociated and plated at 10,000 per well in a tissue-culture treated 96 well plate, in neuronal medium (SM2 matrix independent growth medium, Stem Cell Technologies). Neurons were followed by phase contrast imaging with 1 image acquired every 4 hours, using an Incucyte Zoom (Essen BioScience) with a 20x objective. Four fields per well were acquired. After 24 hours, cells were treated with test compounds and neurite outgrowth was followed for 72 hours post-treatment. All measures were performed in triplicate in one experiment.
Neurite outgrowth kinetics were analyzed from each phase contrast image using the Neurotrack module of the Incucyte Zoom platform. Neurite length and branch points were obtained for each time point. The area under the curve (AUC) was calculated in each experimental condition (GraphPad Prism 6, GraphPad Software).

tubulin = assay: Fluorescence-based tubulin polymerization assay; format: biochemical; settings: purified tubulin, fluorescent reporter, vs DMSO control
Method: Tubulin polymerization in vitro was analyzed using the fluorescence-based tubulin polymerization assay (Cytoskeleton, Inc.), according to the manufacturer’s guidelines. Fluorescence was read on a SaFire II microplate reader (Tecan).

[1] = read-out: IC50 for branch point formation
[2] = read-out: IC50 for neurite length

Row | Structure (SMILES) | pIC50 (primary cortical neurons; [1]) | pIC50 (primary cortical neurons; [2]) | effect on tubulin polymerization in vitro (tubulin)
1 | CC[C@]1(O)C[C@H]2CN(CCc3c([nH]c4ccccc34)[C@@](C(=O)OC)(c3cc4c(cc3OC)N(C=O)[C@H]3[C@@](O)(C(=O)OC)[C@H](OC(C)=O)[C@]5(CC)C=CCN6CC[C@]43[C@@H]65)C2)C1 [vincristine, reference compound] | 9.70 | 9.70 | –
2 | CC[C@]1(O)C[C@@H]2CN(CCc3c([nH]c4ccccc34)[C@@](C(=O)OC)(c3cc4c(cc3OC)N(C)[C@H]3[C@@](O)(C(=O)OC)[C@H](OC(C)=O)[C@]5(CC)C=CCN6CC[C@]43[C@@H]65)C2)C1 [vinblastine, reference compound] | 9.15 | 9.05 | marked decrease in final polymer formation
